In ChEMBL document CHEMBL3232948 (J Med Chem, 2014):
Calls of active or inactive are those of the source. No cut-off for these calls is given here.

Key:
Neuraminidase [1] = target: T1, Neuraminidase (Influenza A virus, UniProt B4URF0); parameters: species or system Influenza A virus (A/Anhui/1/2005(H5N1))
Neuraminidase [2] = target: T1, Neuraminidase; parameters: species or system Influenza A virus (A/California/04/2009(H1N1))
[3] = target: Neuraminidase (Influenza A virus) (UniProt B4URF0); assay: Inhibition of Influenza A virus (A/California/04/2009(H1N1)) wild-type neuraminidase using MU-NANA as substrate at 1000 nM after 1 hr
Neuraminidase [4] = target: T1, Neuraminidase; assay: Inhibition of Influenza A virus SN33 H1N1 neuraminidase using MU-NANA as substrate after 1 hr by spectrofluorometric analysis

Sequence of Neuraminidase (Influenza A virus) (B4URF0 as listed by the source): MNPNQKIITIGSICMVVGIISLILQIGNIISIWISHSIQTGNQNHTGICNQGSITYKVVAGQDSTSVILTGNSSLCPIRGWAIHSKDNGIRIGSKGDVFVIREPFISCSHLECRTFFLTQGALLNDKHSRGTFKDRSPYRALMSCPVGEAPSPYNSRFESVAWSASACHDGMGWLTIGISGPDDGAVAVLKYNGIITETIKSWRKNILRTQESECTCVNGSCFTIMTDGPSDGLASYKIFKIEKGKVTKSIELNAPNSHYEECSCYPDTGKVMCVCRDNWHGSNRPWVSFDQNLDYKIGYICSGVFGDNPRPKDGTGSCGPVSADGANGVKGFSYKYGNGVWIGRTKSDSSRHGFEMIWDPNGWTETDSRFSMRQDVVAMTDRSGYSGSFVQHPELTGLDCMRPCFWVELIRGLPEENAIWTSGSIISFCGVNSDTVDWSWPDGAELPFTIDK
T1 sequence (B4URF0 whole entry): as the sequence (B4URF0 as listed by the source) above

Structure (SMILES)	inhibition [3]	further results
CCC(CC)O[C@@H]1C=C(C(=O)O)C[C@H](N/C(N)=N/C)[C@H]1NC(C)=O	–	IC50 (Neuraminidase [1]): 3.6 nM; IC50 (Neuraminidase [2]): 1.73 nM
CCC(CC)O[C@@H]1C=C(C(=O)O)C[C@H](N/C(N)=N/O)[C@H]1NC(C)=O	–	IC50 (Neuraminidase [1]): 33 nM; IC50 (Neuraminidase [2]): 3.7 nM
CCC/N=C(\N)N[C@H]1CC(C(=O)O)=C[C@@H](OC(CC)CC)[C@@H]1NC(C)=O	inactive	–
C=CC/N=C(\N)N[C@H]1CC(C(=O)O)=C[C@@H](OC(CC)CC)[C@@H]1NC(C)=O	inactive	–
CCC(CC)O[C@@H]1C=C(C(=O)O)C[C@H](N/C(N)=N/CC(F)(F)F)[C@H]1NC(C)=O	inactive	–
CC/N=C(\N)N[C@H]1CC(C(=O)O)=C[C@@H](OC(CC)CC)[C@@H]1NC(C)=O	inactive	–
CC(=O)N[C@H]1C([C@H](O)[C@H](O)CO)OC(C(=O)O)=C[C@@H]1NC(=N)NC(=O)CSc1ccc2ccccc2c1 (stereo partly specified)	–	IC50 (Neuraminidase [4]): 20 nM
CCC(CC)O[C@@H]1C=C(C(=O)O)C[C@H](N/C(N)=N/C(C)C)[C@H]1NC(C)=O	inactive	–
CCC(CC)O[C@@H]1C=C(C(=O)O)C[C@H](N/C(N)=N/C2CC2)[C@H]1NC(C)=O	inactive	–
